Laboratory results from article PMC6781194, “Synthesis, cytotoxicities, and carbonic anhydrase inhibition potential of 6-(3-aryl-2-propenoyl)-2(3H)-benzoxazolones” (Journal of Enzyme Inhibition and Medicinal Chemistry, 2019).

Experiments:
[1] = tested on: HSC-2; assay: Cytotoxic activity (MTT) against OSCC cell line HSC-2; format: cell-based, human; settings: for increase in cytotoxicity compared to non-substituted compound 1: HSC-2 CC50 ratio versus compound 1; for CC50: Homo sapiens, HSC-2, 48 h incubation, MTT, triplicate; for increase in TS (selectivity) compared to compound 1: TS ratio versus compound 1; for PSE (B/A2)×100: potency-selectivity expression = mean CC50 normal cells / (CC50 HSC-2)^2 × 100; for TS (B/A): tumour specificity = mean CC50 normal cells (HGF, HPLF) / CC50 HSC-2
Protocol: (§1) Human normal oral mesenchymal cells, gingival fibroblast (HGF), and periodontal ligament fibroblast (HPLF) established from the first premolar tooth extracted from the lower jaw of a child[47] and human OSCC cell line HSC-2 (derived from tongue), purchased from Riken Cell Bank (Tsukuba, Japan), were cultured at 37 °C in DMEM supplemented with 10% heat-inactivated FBS, 100 units/ml penicillin G, and 100 µg/ml streptomycin sulphate under a humidified 5% CO2 atmosphere. HGF and HPLF cells at 10–18 population doubling levels were used in this study.
(§2) Cells were inoculated at 2.5 × 10^3 cells/0.1 ml in a 96-microwell plate (Becton Dickinson Labware, Franklin Lakes, NJ). After 48 h, the medium was replaced with 0.1 ml of fresh medium containing different concentrations of single test compounds. Cells were incubated further for 48 h and the relative viable cell number was then determined by the MTT method[22]^,[48–54]. All benzoxazolone derivatives were dissolved with DMSO at the concentration of 40 mM and stored until use. Control cells were treated with the same amounts of DMSO ([…], 0.03125, 0.0625, 0.125, 0.25, 0.5, and 1.0%) and the cell damage induced by DMSO was subtracted from that induced by test agents. In brief, cells were stained with MTT reagent, dissolved with DMSO, and the absorbance of the MTT-stained cell lysate was measured at 560 nm, using a microplate reader (Infinite F 50R, TECAN, Kawasaki, Japan). […]
(§3) Tumour specificity (TS) was calculated using the following equation: TS = Mean CC50 against three normal oral cell types (HGF, HPLF)/Mean CC50 against four OSCC cell lines (HSC-2). Since HGF cells were derived from gingival tissue, the relative sensitivity of these cells was also compared (as mean CC50 against HGF/mean CC50 against HSC-2).

[2] = Cytotoxic activity (MTT) against normal gingival fibroblast HGF; format: cell-based; settings: human, HGF normal gingival fibroblasts, HGF normal oral cells, 48 h incubation
Protocol: as §1, §2

[3] = Cytotoxic activity (MTT), mean over human normal oral cells; format: cell-based; settings: HGF and HPLF normal oral fibroblasts (mean of both), read-out: CC50 Human normal oral cells Mean (B)
Protocol: as §1, §2, §3

[4] = molecular target: hCA II (Homo sapiens, UniProt P00918); assay: Carbonic anhydrase inhibition, hCA II; format: biochemical; settings: for Ki: Lineweaver–Burk, three concentrations
Protocol: (§4) The purification of cytosolic CA isoenzymes (CA I and CA II) was previously described with a simple one-step method by a Sepharose-4B-L tyrosine-sulphanilamide affinity chromatography[42]^,[53]^,[55–58]. The protein quantity in the column effluents was determined spectrophotometrically at 280 nm. Sodium dodecyl sulphate-polyacrylamide gel electrophoresis (SDS-PAGE) was applied with a Bio-Rad Mini Gel system Mini-PROTEIN system (Bio-Rad Laboratories, Inc., Shanghai, China) after purification of both CA isoenzymes. Briefly, it was performed in acrylamide for the running (10%) and the stacking gel (3%) contained SDS (0.1%), respectively. […] Bovine serum albumin was used as a standard protein. The IC50 values were obtained from activity (%) versus compounds plots. For the calculation of Ki values, three different concentrations were used. The Lineweaver–Burk curves were drawn and calculations were realised as before.

[5] = molecular target: hCA I (Homo sapiens, UniProt P00915); assay: Carbonic anhydrase inhibition, hCA I; format: biochemical; settings: for Ki: Lineweaver–Burk, three concentrations
Sequence of hCA I (P00915 whole entry): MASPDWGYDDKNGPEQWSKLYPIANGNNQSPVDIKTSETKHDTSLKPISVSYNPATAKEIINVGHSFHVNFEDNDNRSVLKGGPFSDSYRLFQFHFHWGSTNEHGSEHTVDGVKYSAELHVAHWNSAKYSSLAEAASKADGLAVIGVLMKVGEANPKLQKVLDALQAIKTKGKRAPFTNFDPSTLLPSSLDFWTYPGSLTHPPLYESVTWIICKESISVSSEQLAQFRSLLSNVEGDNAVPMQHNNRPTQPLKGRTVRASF
Protocol: as §4

[6] = Cytotoxic activity (MTT) against normal periodontal ligament fibroblast HPLF; format: cell-based; settings: human, HPLF normal periodontal ligament fibroblasts, HPLF normal oral cells, 48 h incubation
Protocol: as §1, §2

| SMILES | melting point [°C] | increase in cytotoxicity compared to non-substituted compound 1 [1] [times] | CC50 [1] [µM] | increase in TS (selectivity) compared to compound 1 [1] [times] | PSE (B/A2)×100 [1] | TS (B/A) [1] | CC50 at 48 h [2] [µM] | CC50 at 48 h [3] [µM] | IC50 [4] [µM] | Ki [4] [µM] | IC50 [5] [µM] | Ki [5] [µM] | CC50 at 48 h [6] [µM] | cytotoxicity reduced compared to compound 1 ([1]; HSC-2 CC50 ratio versus compound 1, decrease) [times] | times more cytotoxic than 5-FU ([1]; HSC-2 CC50 ratio versus 5-FU) [times] | times low cytotoxic than DXR ([1]; HSC-2 CC50 ratio versus DXR) [times] | PSE value higher than 5-FU ([1]; PSE ratio versus 5-FU) | PSE value compared to compound 1 ([1]; PSE ratio versus compound 1) [times] |
| --- | --- | --- | --- | --- | --- | --- | --- | --- | --- | --- | --- | --- | --- | --- | --- | --- | --- | --- |
| Cc1ccc(C=CC(=O)c2ccc3[nH]c(=O)oc3c2)cc1 [Compound 2, 6-[3-(4-Metyhlphenyl)-2-propenoyl]-3H-benzoxazol-2-one] | 258 to 260 | 2.2 | 10.1 | 2.7 | 94 | 9.5 | 87.7 | 96.5 | 45.6 | 32.1 ± 6.6 | 33 | 38.8 ± 1.93 | 105 |  |  |  |  |  |
| COc1cccc2c1C(=O)c1c(O)c3c(c(O)c1C2=O)C[C@@](O)(C(=O)CO)C[C@@H]3O[C@H]1C[C@H](N)[C@H](O)[C@H](C)O1 [DXR, Doxorubicin, reference compound] |  |  | 0.5 |  | >2030 |  | 0.7 | > 5.3 |  |  |  |  | > 10 |  |  |  |  |  |
| O=C(C=Cc1ccccc1)c1ccc2[nH]c(=O)oc2c1 [Compound 1, 6-(3-Phenyl-2-propenoyl)-3H-benzoxazol-2-one] | 230 to 232 |  | 22.1 |  | 16 | 3.5 | 71 | 77.2 | 40.5 | 36.2 ± 13.3 | 58.7 | 70.6 ± 6.67 | 83.3 |  |  |  |  |  |
| CC(C)c1ccc(C=CC(=O)c2ccc3[nH]c(=O)oc3c2)cc1 [Compound 6, 6-[3-(4-Isopropylphenyl)-2-propenoyl]-3H-benzoxazol-2-one] | 220 to 222 | 2.2 | 10.1 | 1.8 | 64 | 6.4 | 53 | 64.5 | 30.1 | 33.3 ± 6.15 | 52.1 | 37.1 ± 7.77 | 76 |  |  |  |  |  |
| O=c1[nH]cc(F)c(=O)[nH]1 [Compound 5-FU, 5-Fluorouracil, reference compound] |  |  | 37.7 |  | 80.7 |  | > 1000 | > 1000 |  |  |  |  | > 1000 |  |  |  |  |  |
| O=C(C=Cc1cccc(O)c1)c1ccc2[nH]c(=O)oc2c1 [Compound 5, 6-[3-(3-Hydroxyphenyl)-2-propenoyl]-3H-benzoxazol-2-one] | 277 to 279 |  | 6.9 |  | 111 | 7.7 | 55.4 | 52.9 | 48.5 | 35.2 ± 8.36 | 69.6 | 63 ± 15.4 | 50.3 |  |  |  |  |  |
| O=C(C=Cc1ccc(OCc2ccccc2)cc1)c1ccc2[nH]c(=O)oc2c1 [Compound 8, 6-[3-(4-Benzyloxyphenyl)-2-propenoyl]-3H-benzoxazol-2-one] | 243 to 245 | 1.9 | 11.9 |  | 46 | 5.5 | 98 | 65.3 | 18.1 | 38 ± 2.36 | 57.7 | 28.4 ± 6.63 | 32.7 |  |  |  |  |  |
| CN(C)c1ccc(C=CC(=O)c2ccc3[nH]c(=O)oc3c2)cc1 [Compound 7, 6-[3-(4-Dimethylaminophenyl)-2-propenoyl]-3H-benzoxazol-2-one] | 248 to 250 |  | 30.2 |  | 8 | 2.4 | 76.3 | 73.2 | 29.7 | 10.8 ± 2.14 | 40.3 | 52.3 ± 9.97 | 70 | 1.4 |  |  |  |  |
| O=C(C=Cc1ccc(C(F)(F)F)cc1)c1ccc2[nH]c(=O)oc2c1 [Compound 4, 6-[3-(4-Trifluoromethylphenyl)-2-propenoyl]-3H-benzoxazol-2-one] |  | 5.5 | 4 | 1.8 | 159 | 6.4 | 24.7 | 25.5 | 45 | 19.2 ± 2.19 | 29.7 | 30.8 ± 3.49 | 26.3 |  | 9.4 | 8 | about 2 times | 9.9 |
| COc1ccc(C=CC(=O)c2ccc3[nH]c(=O)oc3c2)cc1 [Compound 3, 6-[3-(4-Methoxyphenyl)-2-propenoyl]-3H-benzoxazol-2-one] | 210 to 213 | 1.5 | 14.5 |  | 41 | 5.9 | 88.3 | 86.2 | 48.1 | 36.2 ± 10.3 | 47.5 | 30.5 ± 11.3 | 84 |  |  |  |  |  |
